Measurements published in patent US20130123358A1, “Metabolic Benefits to Butyrate as a Chronic Diet Supplement” (priority 2009, published 2013).

System: C57BL/6J mice on high fat diet
Assay: Energy metabolism and body composition in diet-induced obesity, butyrate started with HFD
Assay type: in vivo, mouse
Description: Male C57BL/6J (4 weeks in age) and ob/ob mice (4 weeks in age) were purchased from the Jackson Laboratory (Bar Harbor, Me.). After one week quarantine, the C57BL/6J mice were fed on the high fat diet (HFD, D12331, Research Diets, New Brunswick, N.J.), which contains 58% calories in fat. The ob/ob mice were fed on Chow diet (5001, Lab Diet) that contains 13.4% calories in fat. All of the mice were housed in the animal facility with a 12:12-h light-dark cycle and constant temperature (22-24° C.). The mice were free to access water and diet. All procedures were performed in accordance with National Institute of Health guidelines for the care and use of animals and approved by the Institute Animal Care and Use Committee at the Pennington Biomedical Research Center.
Sodium butyrate was administrated through dietary supplementation. Sodium butyrate (#303410, Sigma) was incorporated into the HFD evenly through blending the diet and sodium butyrate together at 400 rpm in a food processor. Sodium butyrate (50 g) was used in 1 kg diet to reach a dose of 5% w/w. The sodium butyrate containing diet was pelleted and stored in a −20° C. freezer. Trichostatin A (TSA) (T-1052, A.G. Scientific Inc. San Diego, Calif.) was dissolved in DMSO, and diluted in 0.9% saline at 2:98 ratio. The TSA solution (200 ul) was administrated by intra-peritoneal (i.p.) injection to reach a dose of […]. The control mice were administrated with the same volume of vehicle. 50 ml of tributyrin (#113026, Sigma) was incorporated into one kilogram of Chow diet in powder to reach a dose of 5% w/w in mice.
Body composition was measured using quantitative nuclear magnetic resonance (NMR) as previously described (15). In the test, a conscious and unrestrained mouse was placed in a small tube one at a time and individually tested using a Brucker model mq10 NMR analyzer (Brucker, Canada, Milton ON, Canada). The fat and lean mass were recorded within 1 min. Measurements were made in triplicate for each mouse.
Energy expenditure, respiratory exchange ratio (RER), spontaneous physical movement, and food intake were measured simultaneously for each mouse with the Comprehensive Laboratory Animal Monitoring System (Columbus Instruments, Columbus, Ohio) as described previously (15). The temperature in the metabolic chamber was 24° C. The mice were housed individually in the metabolic chamber. After 48 h of adaptation, the data were recorded for all parameters and used in analysis of the energy metabolism.
Butyrate was initially tested for prevention of dietary obesity. In the diet-induced obesity model, the butyrate supplementation started at the beginning of high fat diet (HFD) feeding. The plain HFD was used in the control group. Calorie intake was monitored four times in the first ten weeks. After normalization with body weight, the calorie intake was reduced with the increase in age.
Energy expenditure was examined in C57BL/6J mice using the metabolic chamber at the first week and the tenth week on HFD (16 weeks in age). In this study, sodium butyrate was used at 5% w/w in HFD. […] Food intake was monitored daily for 5 days at each time point. Average daily food intake (g) was converted into K calorie and normalized with body weight (kg) and 24 hours. […] FIG. 1E illustrates the body weight of the mice over 16 weeks. FIG. 1F illustrates the body fat content as determined by NMR expressed as a percentage of body weight. FIG. 1G illustrates the body muscle content expressed as a percentage of body weight. […] Feces were collected in the cages during a 24 hr period on HFD at 12 weeks, and the total lipids were extracted and quantified (P>0.05, n=5). […] The frequency of horizontal movement was shown for day and night time at 10 wks on HFD. For FIGS. 1A-1D and 1I, the number of mice was 8 in both the control or butyrate groups. For FIGS. 1E-1G, the number of mice was 10 in both the control or butyrate group. Values given in FIGS. 1A-1I are the mean±SE. *P<0.05, **P<0.001 by Student's t test. […]

[1] = butyrate 5% w/w in HFD vs control, metabolic chamber, weeks 1 and 10
[2] = butyrate 5% w/w in HFD, NMR, change during 16 weeks

CCCC(=O)[O-].[Na+] [sodium butyrate]
toxicity (by food intake and physical activity) (butyrate 5% w/w in HFD): no toxicity was observed | calorie intake (butyrate 5% w/w in HFD vs HFD control, first ten weeks): significantly higher at all of the time points | body length (mouse growth) (butyrate 5% w/w in HFD vs control): identical between the two groups | spontaneous physical activity (butyrate 5% w/w in HFD vs control, 10 wks on HFD, day and night): not reduced | energy expenditure [1]: elevated at the night time | oxygen consumption [1]: elevated at the night time | respiratory exchange ratio (RER) (butyrate 5% w/w in HFD vs control, weeks 1 and 10): reduced during the day and night time | fat content (adiposity) [2]: not significantly changed | lean mass [2]: not significantly changed | body weight (butyrate 5% w/w in HFD, change during 16 weeks): not significantly changed | body fat content (butyrate 5% w/w in HFD, without a reduction in food intake): 10% | hepatic steatosis (mice on high fat diet with SB, sixteen weeks): reduced
